Source: patent publication US20230357193A1, “COMPOUND CAPABLE OF INHIBITING AND DEGRADING ANDROGEN RECEPTORS, AND PHARMACEUTICAL COMPOSITIONS AND PHARMACEUTICAL USES THEREOF” (Sichuan Haisco Pharmaceutical Co., Ltd., priority 2020, published 2023)
Like-named read-outs stand apart in the source and are kept apart here.

Legend:
[1] = tested on: Prostate cancer cells VCaP; assay: Experiment on inhibiting VCaP cell proliferation (CellTiter-Glo, with 0.1 nM R1881); assay type: cell-based; details: Homo sapiens, 168 h, read-out: GI50 for inhibition of VCaP cells
Experimental: Prostate cancer cells VCaP were purchased from ATCC, the cell medium was 1640 + 10% FBS, and the cells were cultured in an incubator at 37° C. under 5% CO2. On day 1, the cells in an exponential phase were collected. With a 1% css-FBS phenol red-free medium, the cell suspension was adjusted to a corresponding concentration, plated into T0 wells at 7500 cells/well and incubated for 3 days. After the incubation was completed, R1881 at a final concentration of 0.1 nM and compounds at different concentrations were added, and the plate was placed in the incubator and incubated for another 7 days. On the day of the addition, T0 plate was detected using a CellTiter-Glo kit and recorded as RLU0. After the incubation was completed, 100 µL of mediums was pipetted from each well. According to operation instructions for a CellTiter-Glo kit (Promega, G7573), 50 µL of CellTiter-Glo reagents, which were already pre-melted and equilibrated to room temperature, were then added to each well, and the mixtures were uniformly mixed for 2 min using a microplate shaker. The plate was placed at room temperature for 10 min, and then […] signal values were measured using a microplate reader (PHERAstar FSX). The results were processed according to formula (1), the inhibition rate of the compound at different concentrations was calculated, and the GI50 value of the compound with an inhibition rate of 50% was calculated using origin9.2 software, wherein RLU compound was the readout of the treated group, and RLUcontrol was the average value of the solvent control group.

[2] = tested on: Prostate cancer cells 22RV1; assay: Experiment on inhibiting 22RV1 cell proliferation (CellTiter-Glo); assay type: cell-based; details: Homo sapiens, 168 h, 22RV1 cells, 7 days incubation, read-out: IC50 for inhibition of 22RV1 cells
Experimental: Prostate cancer cells 22RV1 were purchased from ATCC, the cell medium was RPMI 1640 + 10% FBS, and the cells were cultured in an incubator at 37° C. under 5% CO2. On day 1, the cells in an exponential phase were collected. With a 1% css-FBS phenol red-free medium, the cell suspension was adjusted to a corresponding concentration, plated at 2000 cells/well and incubated overnight. On day 2, compounds at different concentrations were added, and the plate was placed in the incubator and incubated for another 7 days. After the incubation was completed, according to operation instructions for a CellTiter-Glo kit (Promega, G7573), 50 µL of CellTiter-Glo reagents, which were already pre-melted and equilibrated to room temperature, were added to each well, and the mixtures were uniformly mixed for 2 min using a microplate shaker. The plate was placed at room temperature for 10 min, and then […] signal values were measured using a microplate reader (PHERAstar FSX). The results were processed according to formula (2), the inhibition rate of the compound at different concentrations was calculated, and the IC50 value of the compound with an inhibition rate of 50% was calculated using origin9.2 software with DoseResp function, wherein RLUcompound was the readout of the treated group, and RLUcontrol was the average value of the DMSO solvent control group.

[3] = Pharmacokinetic experiment in rats; assay type: in vivo; details: male SD rats, i.g. 20 mg/kg
Experimental: Objective: in this experiment, a single dose of each test compound was administered to SD rats intravenously and intragastrically, the concentrations of the test compound in plasma of rats were measured, and the pharmacokinetic characteristics and bioavailability of the test compound in rats were evaluated.
Experimental animals: male SD rats, 200-250 g, 6-8 weeks old, 6 rats/compound, purchased from CHENGDU DOSSY EXPERIMENTAL ANIMALS CO., LTD.
Experimental method: on the day of the experiment, six SD rats were randomly grouped according to their body weights. The animals were fasted but with water available for 12 to 14 hours one day before the administration, and were fed 4 h after the administration.
Sampling: before and after the administration, 0.1 mL of blood was taken from the orbit of the rats under isoflurane anesthesia and placed in an EDTAK2 centrifuge tube. Centrifugation was carried out at 5000 rpm at 4° C. for 10 min, and the plasma was collected.
Time points for plasma collection in G1 and G2 groups: 0, 5 min, 15 min, 30 min, 1 h, 2 h, 4 h, 6 h, 8 h, and 24 h.
Before analysis and detection, all samples were stored at -80° C. The samples were analyzed quantitatively by LC-MS/MS.

[4] = VCaP cells, 0.1 nM R1881, 7 days incubation, CellTiter-Glo

Row | SMILES | GI50 [1, 4] [nM] | other results
1 | CC(C)(C(=O)Nc1ccc(C#N)c(C(F)(F)F)c1)n1cc(C2CCN(CC3CCN(c4ccc5c(c4)C(=O)N(C4CCC(=O)NC4=O)C5=O)C3)CC2)cn1 (stereo not shown) [Compound 2, N-(4-cyano-3-(trifluoromethyl)phenyl)-2-(4-(1-((1-(2-(2,6-dioxopiperidin-3-yl)-1,3-dioxoisoindolin-5-yl)pyrrolidin-3-yl)methyl)piperidin-4-yl)-1H-pyrazol-1-yl)-2-methylpropanamide] | 4790 | 
2 | CC(C)(C(=O)Nc1ccc(C#N)c(C(F)(F)F)c1)n1cc(C2CCN(C3CCC4(CC3)CN(c3ccc5c(c3)C(=O)N(C3CCC(=O)NC3=O)C5=O)C4)CC2)cn1 (stereo not shown) [Compound 3, N-(4-cyano-3-(trifluoromethyl)phenyl)-2-(4-(1-(2-(2-(2,6-dioxopiperidin-3-yl)-1,3-dioxoisoindolin-5-yl)-2-azaspiro[3.5]nonan-7-yl)piperidin-4-yl)-1H-pyrazol-1-yl)-2-methylpropanamide] | 3090 | 
3 | N#Cc1ccc(NC(=O)C2(n3cc(C4CCN(CC5CCN(c6ccc7c(c6)C(=O)N(C6CCC(=O)NC6=O)C7=O)C5)CC4)cn3)CCC2)cc1C(F)(F)F (stereo not shown) [Compound 4] | 1810 | 
4 | CC(C)(C(=O)Nc1ccc(C#N)c(C(F)(F)F)c1)n1cc(C2CCN(c3ccc4c(c3)C(=O)N(C3CCC(=O)NC3=O)C4=O)CC2)cn1 (stereo not shown) [Compound 5, N-(4-cyano-3-(trifluoromethyl)phenyl)-2-(4-(1-(2-(2,6-dioxopiperidin-3-yl)-1,3-dioxoisoindolin-5-yl)piperidin-4-yl)-1H-pyrazol-1-yl)-2-methylpropanamide] | 1910 | 
5 | N#Cc1ccc(NC(=O)C2(n3cc(C#CC4CN(C5CN(c6ccc7c(c6)C(=O)N(C6CCC(=O)NC6=O)C7=O)C5)C4)cn3)CCC2)cc1C(F)(F)F (stereo not shown) [Compound 6, N-[4-cyano-3-(trifluoromethyl)phenyl]-1-[4-[2-[1-[1-[2-(2,6-dioxo-3-piperidyl)-1,3-dioxo-isoindolin-5-yl]azetidin-3-yl]azetidin-3-yl]ethynyl]pyrazol-1-yl]cyclobutanecarboxamide] | 1690 | 
6 | N#Cc1ccc(NC(=O)C2(n3cc(C#CC4CN(c5ccc6c(c5)C(=O)N(C5CCC(=O)NC5=O)C6=O)C4)cn3)CCC2)cc1C(F)(F)F (stereo not shown) [Compound 7, N-[4-cyano-3-(trifluoromethyl)phenyl]-1-[4-[2-[1-[2-(2,6-dioxo-3-piperidyl)-1,3-dioxo-isoindolin-5-yl]azetidin-3-yl]ethynyl]pyrazol-1-yl]cyclobutanecarboxamide] | 470 | 
7 | CC(C)(C(=O)Nc1ccc(C#N)c(C(F)(F)F)c1)n1cc(C#CC2CN(C3CN(c4ccc5c(c4)C(=O)N(C4CCC(=O)NC4=O)C5=O)C3)C2)cn1 (stereo not shown) [Compound 8, N-(4-cyano-3-(trifluoromethyl)phenyl)-2-(4-((1′-(2-(2,6-dioxopiperidin-3-yl)-1,3-dioxoisoindolin-5-yl)-[1,3′-biazetidin]-3-yl)ethynyl)-1H-pyrazol-1-yl)-2-methylpropanamide] | 3960 | 
8 | CC(C)(C(=O)Nc1ccc(C#N)c(C(F)(F)F)c1)n1cc(C#CC2CN(c3ccc4c(c3)C(=O)N(C3CCC(=O)NC3=O)C4=O)C2)cn1 (stereo not shown) [Compound 9, N-(4-cyano-3-(trifluoromethyl)phenyl)-2-(4-((1-(2-(2,6-dioxopiperidin-3-yl)-1,3-dioxoisoindolin-5-yl)azetidin-3-yl)ethynyl)-1H-pyrazol-1-yl)-2-methylpropanamide] |  | IC50 [2]: 78 nM; Oral bioavailability [3]: Yes; AUC(0-t) ([3]; rat, po, plasma): 45600 ± 3720 ng·h/mL; half-life ([3]; rat, po, plasma): 24 ± 10 h; GI50 ([1]; VCaP): 180 nM
9 | CC(C)(C(=O)Nc1ccc(C#N)c(C(F)(F)F)c1)n1cc(C#CC2CCN(c3ccc4c(c3)C(=O)N(C3CCC(=O)NC3=O)C4=O)CC2)cn1 (stereo not shown) [Compound 10, N-(4-cyano-3-(trifluoromethyl)phenyl)-2-(4-((1-(2-(2,6-dioxopiperidin-3-yl)-1,3-dioxoisoindolin-5-yl)piperidin-4-yl)ethynyl)-1H-pyrazol-1-yl)-2-methylpropanamide] | 330 | 
